This is an account of results in patent US12258625B2, “Compositions and methods relating to nucleic acid interaction reporters” (Trustees of Boston University, priority 2022, dated 2025).

The assay deals with miR-430 target site. Put plainly: microRNA sensor (Ago2 fused to Adar catalytic subunit). Type of assay: in vivo, zebrafish. How it is done: In this case, the writer comprises a protein fusion between a protein from the Argonaute family and the catalytic domain of the RNA-editing enzyme ADAR. The recorder must contain the target site of the microRNA of interest, usually the 6 to 8 nucleotides complementary to the miRNA seed region. In the presence of the writer, the recorder and the miRNA of interest, the ternary interaction is recorded as RNA editing in the recorder mRNA. The number of edits will be proportional to the strength of the microRNA-target site interaction. Other variants of this approach include expressing the Ago-Adar writer together with a library of recorders that containing all possible 8-nucleotide sequences as binding site. […]
FIG. 18 depicts a microRNA sensor. miR-430 is a small non-coding regulatory microRNA that recognize their targets mRNAs trough interaction and pairing. miR-430 binds to the effector protein Ago2 and together form a riboprotein complex that recognizes and binds to target mRNAs. miR-430 is the only microRNA expressed during early embryogenesis. […] Only with the tertiary interaction between Ago2, a microRNA, and the target is reconstituted, is editing detected.
Usage of the interactome recorder system to determine microRNA activity in vivo (FIG. 8A). […] In the presence of the writer, the recorder and the miRNA of interest, the ternary interaction is recorded as RNA editing in the recorder mRNA. […]

Each structure is given as a SMILES string.

For `CC[C@H](C)[C@@H]1NC(=O)CNC(=O)[C@@H]2Cc3c([nH]c4cc(O)ccc34)[S+]([O-])C[C@@H](NC(=O)CNC1=O)C(=O)N[C@@H](CC(N)=O)C(=O)N1C[C@H](O)C[C@H]1C(=O)N[C@@H]([C@@H](C)[C@@H](O)CO)C(=O)N2` (stereo partly drawn) [alpha-Amanitin], the “editing of the recorder” value (embryos injected with alpha-Amanitin) was “not when endogenous miR-430 expression is inhibited”. For the same molecule, the miR-430 expression entry (injection, early embryogenesis) is recorded as “prevents its expression”.
